Data from patent publication US6359008B1, “Acylated aminoacids for increasing the uptake of selected substances by organisms” (Lovesgrove Research Limited, priority 1998, dated 2002).

Experiments:
[1] = test system: Rainbow Trout; assay: Field trial of Corbinol as pigment adsorption enhancer in fish feed; type: in vivo
Description: A field trial was conducted at a fish farm facility adjacent to the Rheidol hydroelectric station to establish a preliminary indication of the efficacy of Corbinol comprising 75 g palmitoylaminoproprionic acid with 925 g of silica talc carrier as a pigment adsorption enhancer. Approximately 250 Rainbow Trout were divided into two groups and held in separate tanks each 4 m×4 m×1 m. The fish were hand fed for a duration of 4 weeks, the diets for the two groups being: Control: Mainstream Trout Hi-Performance 40 Treated: Mainstream Trout Hi-Performance+Corbinol (1 kg/tonne) At the end of the trial 100 farm fish from each group were removed and individually weighed. Equal levels of flesh samples were bulked together forming 10 groups of 10 for both the control and treated diets. HPLC analysis was conducted using a Merck-Hitachi L-4250 UV-Vis detector following an isocratic method referred to in a Roche Ltd publication.

[2] = Heat stability of the compound; type: physicochemical
Description: The high polar head group appears to provide the bio-activity of the compound without having to incorporate a phosphonic group therein.

heat stable to [2]: approximately 130 °C
SMILES: CCCCCCCCCCCCCCCC(=O)NC(C)C(=O)O (centres unmarked) [2-palmitoylaminoproprionic acid]
uptake of selected compounds, in particular pigments, in organisms such as fish [1]: increase the uptake of selected compounds
